The subject of one series is RPMI8226. Briefly: MTT cell viability assay, RPMI8226. Type of series: cell-based. The note with it: Homo sapiens, RPMI-8226, Myeloma, 72 hours exposure. The protocol: (§1) After 72 hours exposure, the viability of the cells was determined by the rate of conversion of the formazan salt measuring the optical density (OD) at 570 nm (MTT assay).
A further series deals with HCT-116. Description: MTT cell viability assay, HCT-116. Type of series: cell-based. The settings on record: Homo sapiens, Colon, 72 hours exposure. The protocol: as §1
The test system of the next series is 10C9. Description: MTT cell viability assay, 10C9. Type of series: cell-based. The settings on record: Lymphoma, 72 hours exposure. The protocol:
as §1

For another series, the system named is U266. Briefly: MTT cell viability assay, U266. Type of series: cell-based. The note with it: Homo sapiens, U-266, Myeloma, 72 hours exposure. Here is the method:
as §1

The next series concerns SU-DHL9. Briefly: MTT cell viability assay, SU-DHL9. The settings on record: Lymphoma, 72 hours exposure. Type of series: cell-based. The protocol:
as §1

In series [1] the test system is myeloma cell lines RPM18226. Briefly: Apoptosis induction in myeloma cell line. It is filed as cell-based. The settings on record: RPM18226 myeloma cells.
The subject of another series is SU-DHL1. Briefly: MTT cell viability assay, SU-DHL1. Type of series: cell-based. The note with it: Homo sapiens, SU-DHL-1, Lymphoma, 72 hours exposure. The protocol:
as §1

A further series has as its system RAJI. Briefly: MTT cell viability assay, RAJI. The settings on record: Homo sapiens, Lymphoma, 72 hours exposure. Type of series: cell-based. The protocol:
as §1

A further series has as its system LNCap. Briefly: MTT cell viability assay, LNCap. It is filed as cell-based. The settings on record: Homo sapiens, Prostate, 72 hours exposure. The protocol: as §1
Another series deals with MDA-231. Description: MTT cell viability assay, MDA-231. Type of series: cell-based. The settings on record: Homo sapiens, MDA-MB-231, Breast, 72 hours exposure. Here is the method: as §1
The test system of the next series is MCF7. Briefly: MTT cell viability assay, MCF7. Type of series: cell-based. The settings on record: Homo sapiens, Breast, 72 hours exposure. Here is the method:
as §1

The test system of the next series is CLL cells. The note with it: not feasible in vivo due to toxicity; cited from earlier work.
Series [2] concerns peripheral blood T lymphocytes. The settings on record: cited from earlier work.
The conditions of series [3]: cited from earlier work.
The conditions of series [4]: in vivo; cited from earlier work.
For series [5] the following is noted: cited from earlier work. The source holds these as a separate data set.
The subject of series [6] is Chronic lymphocytic leukemia cells (CLL). Briefly: Viability/apoptosis of CLL cells by dye exclusion and flow cytometric analysis. The note with it: 10 μM, 48 hours exposure, CLL cells of two patients. Type of series: cell-based, human. The protocol: (§2) After 48 hours exposure, the number of viable cells was determined by dye exclusion and flow cytometric analysis.
The subject of series [7] is control normal lymphocytes (PBL). Description: Viability/apoptosis of control normal lymphocytes by dye exclusion and flow cytometric analysis. It is filed as cell-based, human. The note with it: 10 μM, 48 hours exposure, PBL of a healthy volunteer. Here is the method: as §2

SMILES strings stand for the structures. Structures can show the parent of a compound that is named as a salt. Some results are limits rather than exact numbers.

As for `O[C@H](c1cc(C(F)(F)F)nc2c(C(F)(F)F)cccc12)[C@@H]1CCCCN1` (racemic) [(+/−) Mefloquine, (R*, S*)-(±)-alpha-2-piperidinyl-2,8-bis (trifluoromethyl)-4-quinolinemethanol], the 50% inhibitory concentration (IC50) in the series with RPMI8226 is 8 µM; with HCT-116, 6 µM; in the series on 10C9, 9 µM; with U266, 11 µM; with SU-DHL9 it was 7 µM; in series [1], 10 to 20 µM. Besides, the IC50 in the series with SU-DHL1 is 8 µM; with RAJI, 12 µM; in the series on LNCap, 12 µM; in the series on MDA-231, 20 µM; in the series on MCF7, 10 µM.
For the compound `CCN(CCO)CCCC(C)Nc1ccnc2cc(Cl)ccc12` (stereo not shown) [Hydroxychloroquine, hydroxychloroquine], the “concentration active against CLL cells” value in the series on CLL cells is no less than 30 µg/mL. Also, in series [2], the “induction of apoptosis in peripheral blood T lymphocytes” value is listed as “induce apoptosis”.
Take `O=C(O)c1cc(C(F)(F)F)nc2c(C(F)(F)F)cccc12` [Metabolite, 2,8-bis-trifluoromethyl-4-quinoline carboxylic acid]: in series [3] (healthy volunteers, 250 mg once weekly for 16 weeks, steady state at week 16, plasma), the “Mean (SD) trough concentration, Plasma” value was 9.80 (5.07) μmol · 1^−1. For the same compound, in [3] (healthy volunteers, 250 mg once weekly for 16 weeks, steady state at week 16, serum), the “Mean (SD) trough concentration, Serum” value is reported as 9.44 (5.00) μmol · 1^−1. For the same compound, the “Mean (SD) trough concentration, Whole Blood” value in series [3] (healthy volunteers, 250 mg once weekly for 16 weeks, steady state at week 16, whole blood) is recorded as 4.89 (2.58) μmol · 1^−1. For the same compound, in series [3] (plasma, text statement referring to Table 1), the “accumulation in the plasma” value was “up to 10 μM”. Besides, in [4], the “passage of the blood brain barrier / accumulation in the brain” value is listed as “will not penetrate the brain barrier”.
`OC(c1cc(C(F)(F)F)nc2c(C(F)(F)F)cccc12)C1CCCCN1` (stereo not shown) [Mefloquine hydrochloride]: the solubility in ethanol entry in series [5] (ethanol) was “soluble in ethanol”. Also, the solubility in water result in series [5] (water) is reported as “slightly soluble in water”.
Consider `O[C@H](c1cc(C(F)(F)F)nc2c(C(F)(F)F)cccc12)[C@@H]1CCCCN1` (relative stereo) [(+/−) Mefloquine, (R*, S*)-(±)-alpha-2-piperidinyl-2,8-bis (trifluoromethyl)-4-quinolinemethanol], for which the “induction of apoptosis in CLL cells” value in series [6] is on record as “potent apoptosis”. For the same compound, the “induction of apoptosis in normal lymphocytes” value in [7] is listed as “not against normal lymphocytes”.

The values are drawn from US20030216426A1 (REGENTS OF THE UNIVERSITY OF CALIFORNIA, priority 2002, published 2003).
